Experimental data from PubChem BioAssay AID489027 (Sanford-Burnham Center for Chemical Genomics, 2010).
The source made the active and inactive calls. How the calls were made is not given here.

Each compound was assayed against UPR counterscreen luciferase reporter, luminescence (assay: luciferase reporter activation, UPR counterscreen line – cell-based, luminescence, counter-screen for adaptive UPR activator project, dose response (AID 489027)).
`NS(=O)(=O)c1ccc(N/N=C/c2cn(-c3ccccc3)nc2-c2ccccc2)c([N+](=O)[O-])c1` gave an EC50 of 7.34 µM.
Work on `C/C(CC(C)(C)C1CCCCC1)=N\NC(N)=S` yielded an EC50 of 12.1 µM.
In the case of `N#Cc1cnn2c1nc(N1CCCCC1)c1ccccc12`, the EC50 is reported as > 80 µM (inactive).
`COc1cc2nc(N3CCN(c4cc(C)ccc4C)CC3)nc(N)c2cc1OC` was tested, and the EC50 was 9.19 µM.
`O=C1NC(=O)C(=Cc2cn(CCOc3ccc4c(c3)OCO4)c3ccccc23)C(=O)N1` was tested, and the EC50 was 18.5 µM.
`COc1ccc(NC(=O)c2sc3nc(N4CCOCC4)c4c(c3c2N)CC(C)(C)OC4)c(OC)c1` gave an EC50 of 19.3 µM.
Work on `CCC[C@@H](CN[C@@H](CNC)[C@H](C)CC)NCC1CCC(C(C)(C)C)CC1` (stereo partly drawn) yielded an EC50 of 6.95 µM.
With `CCC(Sc1nnc2c3ccccc3n(CC)c2n1)C(=O)Nc1sc2c(c1C#N)CCCC2` (stereo not drawn) the EC50 was “inactive”.
`CC(C)=CCc1c2c(c3occ(-c4ccc(O)cc4)c(=O)c3c1O)C=CC(C)(C)O2` was tested, and the EC50 was 16.6 µM.
In the case of `Cc1ccc(NC(=O)c2cc(S(=O)(=O)N(C)C)ccc2N2CCCC2)cc1S(=O)(=O)N(C)C`, the EC50 is reported as 19 µM.
In the case of `O=C(Nc1ccc(O)c(-c2nc3ccccc3s2)c1)c1cc(=O)c2ccccc2o1`, the EC50 is reported as > 80 µM (inactive).
`Cc1ccc(Cc2cnc(NC(=O)/C(C#N)=C/c3ccc(-c4cccc([N+](=O)[O-])c4)o3)s2)cc1` gave an EC50 of 12 µM.
In the case of `CCc1cc2c(C)ccc(C)c2nc1SCC(=O)Nc1c[nH]c(=O)[nH]c1=O`, the EC50 is reported as 16.8 µM.
With `CCOC(=O)c1nnc(-c2ccc(C)cc2)nc1Oc1ccccc1Cl` the EC50 was “inactive”.
With `N#Cc1ccccc1/C=N/Nc1nc(-c2ccccc2)c2cc(Cl)ccc2n1` the EC50 was 15.7 µM.
For `O=C1Nc2ccccc2/C1=C/c1ccc([N+](=O)[O-])cc1`, the EC50 was “inactive”.
In the case of `O=C(COc1ccc(Cl)cc1Cl)NN=C1c2ccccc2-c2ccccc21`, the EC50 is reported as “inactive”.
With `CCn1c(/C=C/c2c(C)[nH]c3ccccc23)nc2ccccc2c1=O` the EC50 was > 80 µM (inactive).
`Cc1nn(-c2ccccc2)c(C)c1/C=N/NC(=O)CSc1nc2ccccc2c(=O)n1-c1ccc(Br)cc1` showed an EC50 of 7.19 µM.
With `CCOC(=O)c1c(-c2ccc(C)o2)csc1NC(=O)COC(=O)c1ccc(NC(N)=O)cc1` the EC50 was > 80 µM (inactive).
With `CCOC(=O)/C=c1\s/c(=C\c2ccc3cc(OC)ccc3c2)c(=O)n1CC(=O)NCC1CCCO1` (stereo not drawn) the EC50 was > 80 µM (inactive).
`CCOc1cc(/C=C2/C(=N)N3C=CSC3=NC2=O)ccc1OCCCOc1ccccc1C` gave an EC50 of 17.7 µM.
For `Cn1nc(C(F)(F)F)c(/C=N/OC(=O)c2ccccc2Cl)c1SCc1ccccc1Cl`, the EC50 was “inactive”.
`COc1cc(/C=C(\C#N)c2nc3ccccc3[nH]2)cc(Br)c1OCc1ccc(F)cc1` showed an EC50 of 15.3 µM.
In the case of `CC(=O)Nc1ccccc1Sc1ccc2c3c(cccc13)C(=O)N(c1ccc(C)cc1)C2=O`, the EC50 is reported as > 80 µM (inactive).
Work on `Cc1nc2ccccc2n1-c1nc(-c2ccco2)cc(C(F)(F)F)n1` yielded an EC50 of 11.1 µM.
`N#Cc1ccc(-c2ccc(Cl)cc2)nc1SCC(=O)c1cccc(Cl)c1` gave an EC50 of 8.05 µM.
For `O=C1c2ccccc2C(=O)N1/N=C/c1ccc(O)c(O)c1`, the EC50 was “inactive”.
`OCCNc1nc(Nc2ccc(Br)cc2)nc2ccccc12` was tested, and the EC50 was 5.82 µM.
`CC(C)c1cccc(-c2ccc3c(c2)S(=O)(=O)c2cccc(C(=O)NCc4ccccc4Cl)c2C3=O)c1` gave an EC50 of 7.24 µM.
In the case of `O=[N+]([O-])c1ccc(N/N=C/c2ccc(OCc3cccc4ccccc34)cc2)nc1`, the EC50 is reported as > 80 µM (inactive).
For `Cc1ccc2nc(SCC(=O)Nc3cc(C(F)(F)F)ccc3N3CCOCC3)[nH]c2c1`, the EC50 was “inactive”.
Compound `CCOC(=O)c1nnn2c1nc(Nc1cccc(C(F)(F)F)c1)c1ccccc12` has an EC50 of 10 µM.
`CCCc1nc2ccccc2c(=O)n1/N=C/c1ccc(O)c(O)c1` showed an EC50 of 15 µM.
In the case of `CCOC(=O)c1c(NC(=O)c2cc(C)on2)c2cc([N+](=O)[O-])ccc2n1C`, the EC50 is reported as > 80 µM (inactive).
In the case of `COC(=O)Cc1csc(/N=C/c2c(O)n(-c3cccc(C(F)(F)F)c3)c(=O)c3ccccc23)n1`, the EC50 is reported as > 80 µM (inactive).
In the case of `O=[N+]([O-])c1ccc(Cl)c(-c2ccc(/C=N/c3c(-c4ccco4)nc4ccccn34)o2)c1`, the EC50 is reported as “inactive”.
For `COC(=O)c1cc([N+](=O)[O-])c(-n2ccnc2)c([N+](=O)[O-])c1`, the EC50 was > 80 µM (inactive).
Compound `COC(=O)c1ccc(COc2ccccc2/C=C(\C#N)C(=O)Nc2c(C)cccc2C)cc1` has an EC50 of 17.4 µM.
For `O=C(Cn1c2ccccc2c(=O)c2cc([N+](=O)[O-])ccc21)Nc1ccccc1Cl`, the EC50 was “inactive”.
For `O=c1cc2oc3cc(O)c(O)cc3c(-c3ccccc3[N+](=O)[O-])c-2cc1O`, the EC50 was > 80 µM (inactive).
With `CCCCCCCCCCn1c2c(c(=N)c3c1CCC3)CCC2` the EC50 was 13.5 µM.
Compound `COc1ccc(-c2cc(-c3ccccc3)c(C#N)c(S(C)(=O)=O)n2)cc1` has an EC50 of 5.05 µM.
In the case of `Cc1ccc2nsnc2c1NC(=O)c1ccc(-c2cc(Cl)ccc2Cl)o1`, the EC50 is reported as > 80 µM (inactive).
In the case of `COc1ccc(Cc2nnc(N/N=C/c3ccc(N(C)C)cc3)[nH]c2=O)cc1OC`, the EC50 is reported as > 80 µM (inactive).
For `CC1CCc2cc(F)ccc2N1C(=O)CSc1nnc2c(n1)[nH]c1ccc(F)cc12` (stereo not drawn), the EC50 was > 80 µM (inactive).
In the case of `C=C(C)[C@@]12OC3(c4ccccc4)O[C@@H]1C1[C@@H]4O[C@]4(CO)[C@@H](O)[C@]4(O)C(=O)C(C)=C[C@H]4[C@@]1(O3)[C@H](C)[C@H]2OC(=O)/C=C/C=C/c1ccccc1` (stereo partly drawn), the EC50 is reported as “inactive”.
In the case of `CCOC(=O)C1=C(O)/C(=C/c2cn(CC(=O)NCC3CCCO3)c3ccccc23)SC1=Nc1ccc(C)cc1` (stereo not drawn), the EC50 is reported as > 80 µM (inactive).
For `CCc1nn(-c2cc(Oc3cccc4ccccc34)nc(-c3ccccc3)n2)c(N)c1C#N`, the EC50 was > 80 µM (inactive).
In the case of `Cn1c(/C=C/c2ccc(Cl)cc2Cl)c([N+](=O)[O-])c(=O)n(C)c1=O`, the EC50 is reported as 12.8 µM.
For `O=C(/C(=N/N=C/c1ccc(O)c(O)c1)c1ccccc1)c1ccccc1`, the EC50 was 8.07 µM.
`Cc1cccc2cc(C(c3nnnn3Cc3ccccc3)N3CCCc4ccccc43)c(=O)[nH]c12` (stereo not drawn) was tested, and the EC50 was “inactive”.
For `Cc1ccc(NC(=O)c2cc(S(=O)(=O)N(C)C)ccc2N2CCCC2)cc1F`, the EC50 was “inactive”.
Work on `COc1cc([C@H]2c3[nH]c4ccccc4c3C[C@H]3C(=O)N4[C@@H](c5cc(OC)c(OC)c(OC)c5)c5[nH]c6ccccc6c5C[C@H]4C(=O)N23)cc(OC)c1OC` yielded an EC50 of 7.28 µM.
`Cc1cccc2sc(NC(=O)c3cc(S(=O)(=O)N(C)C)ccc3N3CCCC3)nc12` showed an EC50 of 7.43 µM.
With `CCOC(=O)c1sc(NC(=S)NC(=O)c2ccccc2)c(C(=O)OCC)c1C` the EC50 was “inactive”.
For `C[C@H]1[C@H](C)CC[C@]2(C(=O)O)CC[C@]3(C)C(=CC[C@@H]4[C@@]5(C)C[C@@H](O)[C@H](O)C(C)(C)[C@@H]5CC[C@]43C)[C@H]12`, the EC50 was > 80 µM (inactive).
In the case of `N#Cc1cc2c(nc1SCC(=O)Nc1sc3c(c1C#N)CCC3)CCCC2`, the EC50 is reported as “inactive”.
With `O=C(NCc1ccccc1Cl)c1cccc2c1C(=O)c1ccc(-c3ccc(OC(F)(F)F)cc3)cc1S2(=O)=O` the EC50 was 9.15 µM.
`Cc1cc(NC(=O)c2cc(-c3ccncc3)nc3c(C)cccc23)no1` gave an EC50 of 16 µM.
In the case of `Cc1c(NC(=O)CSc2ccc(Cl)cc2)cccc1-c1nc2cc(Cl)ccc2o1`, the EC50 is reported as > 80 µM (inactive).
In the case of `Cc1cc(C)c2c(c1)/C(=c1/sc3n(c1=O)CN(c1ccccc1)CN=3)C(=O)N2`, the EC50 is reported as 10.5 µM.
With `COC(=O)c1c(NC(=O)c2nc3ccccc3s2)sc2c1CC(C)(C)NC2(C)C` the EC50 was > 80 µM (inactive).
With `Cc1ccc(-c2ccnc(-c3ccc(O)cc3)n2)cc1` the EC50 was > 80 µM (inactive).
Work on `Cc1c(O)cc2c(c1O)C(=O)CC(c1ccccc1)O2` (stereo not drawn) yielded an EC50 of 10.9 µM.
With `COc1ccc([N+](=O)[O-])cc1COc1ccc2c(-c3ccccc3)cc(=O)oc2c1` the EC50 was “inactive”.
Compound `COc1ccc(C(=O)/C=C/c2ccc(O)cc2)c(O)c1C/C=C(\C)CCC=C(C)C` has an EC50 of 15.2 µM.
`NS(=O)(=O)c1ccc(N=Cc2c(O)n(C3CCCCC3)c(=O)n(C3CCCCC3)c2=O)cc1` was tested, and the EC50 was 14.6 µM.
In the case of `COc1c(Cl)cc(Cl)cc1/C=N/NC(=O)c1nnn(-c2nonc2N)c1CN1CCC(C)CC1`, the EC50 is reported as “inactive”.
With `O=C(NCC1CCCO1)c1nn2c(C(F)(F)F)cc(-c3cc(Br)cs3)nc2c1Br` (stereo not drawn) the EC50 was > 80 µM (inactive).
For `C#CCn1c(=NC(=O)c2ccc(S(=O)(=O)N3CCc4ccccc4C3)cc2)sc2cc(S(N)(=O)=O)ccc21`, the EC50 was > 80 µM (inactive).
`CCCCNc1c(-c2ccc(SC(C)CC)cc2)nc2cnccn12` (stereo not drawn) showed an EC50 of 14.1 µM.
`CN(c1ccccc1)S(=O)(=O)c1cccc(C(=O)NCCc2ccc(O)c(O)c2)c1` showed an EC50 of 6.18 µM.
For `COc1ccc(-c2nn(-c3ccccc3)cc2/C=N/N2C(=O)CSC2=S)cc1`, the EC50 was > 80 µM (inactive).
`Cc1cc(-n2c(SCC(=O)Nc3ccc(F)c(F)c3)nc3n[nH]c(C)c3c2=N)ccc1Cl` was tested, and the EC50 was > 80 µM (inactive).
In the case of `Cc1ccc(-c2[nH]ncc2/C=N/n2c(COc3ccccc3)nc3ccccc3c2=O)cc1`, the EC50 is reported as “inactive”.
With `COc1ccc(OC)c(NC(=O)c2oc3ccccc3c2NC(=O)C2CC2)c1` the EC50 was > 80 µM (inactive).
In the case of `COc1cc(/C=N/NC(N)=O)c(Br)cc1OCC(=O)Nc1ccccc1C`, the EC50 is reported as “inactive”.
`CC1CCC(C(C)C)C(OC(=O)Cn2c(-c3ccc(Br)cc3)[n+](C)c3ccccc32)C1` (stereo not drawn) showed an EC50 of 10.9 µM.
`CN(C)CCCN(C(=O)c1ccc(S(=O)(=O)N2CCCCCC2)cc1)c1nc2ccc(Br)cc2s1` gave an EC50 of 12.7 µM.
`COc1ccc(-c2nn(-c3ccccc3)cc2/C=C/C(=O)OCC(=O)Nc2cccc(C#N)c2)cc1` was tested, and the EC50 was > 80 µM (inactive).
With `CCCCCCCCCCOC(=O)Cn1c(COc2ccc(OC)cc2)[n+](C)c2ccccc21` the EC50 was 18.8 µM.
`O=C(Nc1nc(-c2ccc(F)c(F)c2)cs1)Nc1ccc(F)cc1F` showed an EC50 of 13.4 µM.
For `COc1ccc(Cn2c(SCc3cc(C)ccc3C)nc3cc(OC)c(OC)cc3c2=N)cc1`, the EC50 was > 80 µM (inactive).
For `COc1ccc(/C=N/Nc2cc(C)nc3ccc(Br)cc23)cc1`, the EC50 was 9.88 µM.
`Nc1nc(Nc2cccc(C(F)(F)F)c2)nc(C(F)(F)F)n1` was tested, and the EC50 was “inactive”.
`COc1ccc(C(CCNCc2ccccc2)c2ccc(F)cc2)cc1` (stereo not drawn) showed an EC50 of 10.4 µM.
For `NC1=NC[C@@H](CC2CCCCC2)N1CCc1cc(C(F)(F)F)cc(C(F)(F)F)c1`, the EC50 was > 80 µM (inactive).
For `O=C(Nc1cccc(-c2nc3cccnc3s2)c1)C1c2ccccc2Oc2ccccc21`, the EC50 was 4.35 µM.
`O=C1NC(=O)N(Cc2ccc(F)cc2)C(=O)/C1=C/c1cccs1` was tested, and the EC50 was 13.8 µM.
`Cc1cccc(NC(=O)/C(C#N)=C/c2cn(CC(=O)NCc3ccco3)c3ccccc23)c1C` was tested, and the EC50 was > 80 µM (inactive).
For `CCOc1ccc(-n2c(C)cc(C(=O)CCl)c2C)cc1`, the EC50 was 6.73 µM.
For `CCCCCCCCCCOC(=O)Cn1c(COc2ccccc2C)[n+](C)c2ccccc21`, the EC50 was > 80 µM (inactive).
